Measurements taken from patent US20220218639A1.
Several values for one entry are separate records, joined by “and”; a condition that tells them apart may be missing. Equal values may be shown once.

Legend:
δ-plasmin = molecular target: T1, δ-plasmin (Homo sapiens, UniProt P00747, DEL181-559); experiment: S-2251 inhibition assay (Dixon plot), δ-plasmin; format: biochemical; details: for mode of inhibition (δ-plasmin): Dixon plot with S/Vo vs I plot; for Ki: Dixon plot, S-2251 100, 350, 750 μM, enzyme 1.0 μg/mL, PBS pH 7.4, unit inferred; for Pen X-Fold inhibition (Delta Plasmin): Ki of the inhibitor relative to Ki of pentamidine
T1 construct: made in house; host or cells: E. coli (T7 expression system, pET 24b(+))

plasmin [1] = molecular target: T2, plasmin (Homo sapiens, UniProt P00747); experiment: S-2251 inhibition assay (Dixon plot), plasmin; format: biochemical; set-up: purchased Sigma-Aldrich; details: for mode of inhibition (plasmin): Dixon plot with S/Vo vs I plot; for Ki: Dixon plot, S-2251 100, 350, 750 μM, enzyme 1.0 μg/mL, PBS pH 7.4, unit inferred; for Pen X-Fold inhibition (Plasmin): Ki of the inhibitor relative to Ki of pentamidine
plasmin [2] = molecular target: T2, plasmin; experiment: Fluorescence titration dissociation constant (Kd) assay; format: binding; set-up: purchased Sigma-Aldrich; host or cells: human plasma; details: emission 370 nm, PBS pH 7.4, no S-2251; unit inferred; read-out: Kd by fluorescence titration (PB Fl Ki)
Method: Fluorescence Titration Dissociation Constant (Kd) Assay. Plasmin was titrated with increasing concentrations of 4-aminobenzamidine from 0-1000 μM in PBS buffer at pH 7.4. By monitoring the increase in fluorescence emission (excitation 280 nm, emission at 370 nm) from 4-aminobenzamdine associated plasmin, a direct determination of its dissociation constant (Kd) can be made. Fitting the data to a sigmoid the Kd value for 4-aminobenzamidine to sigma plasmin is the concentration of inhibitor at which 50% (or 0.5 or half maximum fluorescent emission is reached) intersects with the fit.
Fluorescent titration assay was carried out as described above for determining the Kd, which is the same as the Ki in the case of competitive inhibition, for the 4-aminobenzamidine derivative to plasmin in the absence of the S-2251 substrate.
p-Aminobenzamidine's fluorescent properties enable the implementation of a fluorescent titration assay to directly determine its binding affinity to plasmin. […] At a constant plasmin concentration, increasing amounts of p-aminobenzamidine were titrated into the sample monitoring the fluorescence emission at 370 nm (FIG. 10A).

blood clots = experiment: Clot digestion assay in serum; details: 50% serum, 2 hours room temp, background-corrected
Method: In this Example, blood clot digestion by nanoparticles prepared using 4-carboxybenzamidine conjugated micelles and delta plasmin was analyzed in both PBS and serum.
Fresh blood was drawn and clotted in glass tubes at 37° C. for 1.5 hours. Clots were then cut, excess liquid was removed via light blotting, and weighed to produce clots of ˜600 mg size. Clots were then transferred to phosphate buffered saline (PBS at pH 7.4) or serum. […] After incubation, the blood clots were again lightly blotted and weighed. Experimental parameters are summarized in Table 3 for the clot digestion assay performed in serum.

[3] = Enzyme kinetics with S-2251 chromogenic substrate (Lineweaver-Burke plot); format: biochemical; set-up: Kcat: unit not given here; details: for Kcat: S-2251 substrate, PBS pH 7.4, unit not given
Method: Enzyme Kinetic and Inhibition Assays. All enzymatic assays were conducted in phosphate buffered saline (PBS, pH 7.4) at 25° C. on a Molecular Devices SpectraMax Plus 96 well plate reader. The S-2251 assay took advantage of a shift in absorbance of the substrate upon cleaving that could be monitored at a wavelength of 405 nm to determine enzyme kinetics as well as competitive inhibition Ki values for plasmin and its derivatives. […] Initial velocities were determined by the slope of the first 60 seconds of reaction with the S-2251 substrate. All experiments were carried out in triplicate and data represents means plus or minus standard deviations.
In this Example, the predicted kinetic characteristics of plasmin and delta-plasmin were compared. KM, Vmax and Kcat were determined for both full length plasmin and delta plasmin using a Lineweaver-Burke plot in which the concentration of plasmin was held constant across a range of S-2251 substrate concentrations (0-750 μM). Initial velocities for each data point were determined by the slope of the first 60 seconds of reaction with the S-2251 substrate following absorbance at 405 nm.
The Km and Kcat for the two forms of plasmin were determined utilizing an S2251 chromogenic substrate.

T1 sequence (P00747 with tags, fused parts or gaps K528E/G536N/V538P/G539Q/N547D/R549E/L551R/V557I/P558L/Q559E): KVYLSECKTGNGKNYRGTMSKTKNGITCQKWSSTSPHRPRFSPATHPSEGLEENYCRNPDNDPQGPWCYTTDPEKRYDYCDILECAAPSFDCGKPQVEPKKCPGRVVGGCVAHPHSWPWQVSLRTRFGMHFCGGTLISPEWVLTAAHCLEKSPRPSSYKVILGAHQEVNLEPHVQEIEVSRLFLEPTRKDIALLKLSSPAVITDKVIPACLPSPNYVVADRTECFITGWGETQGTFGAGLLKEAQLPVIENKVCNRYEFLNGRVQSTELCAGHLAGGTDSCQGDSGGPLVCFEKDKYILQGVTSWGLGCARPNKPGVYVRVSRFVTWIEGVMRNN
T2 sequence (P00747 581-810 limits assumed): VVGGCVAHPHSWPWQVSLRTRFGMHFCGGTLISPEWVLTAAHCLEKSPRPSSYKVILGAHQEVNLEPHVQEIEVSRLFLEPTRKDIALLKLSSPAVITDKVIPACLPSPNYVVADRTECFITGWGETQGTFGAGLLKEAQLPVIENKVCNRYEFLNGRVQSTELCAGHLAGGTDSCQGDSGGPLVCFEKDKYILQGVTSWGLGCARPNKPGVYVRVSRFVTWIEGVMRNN
T2 sequence (P00747 97-580 partner limits assumed): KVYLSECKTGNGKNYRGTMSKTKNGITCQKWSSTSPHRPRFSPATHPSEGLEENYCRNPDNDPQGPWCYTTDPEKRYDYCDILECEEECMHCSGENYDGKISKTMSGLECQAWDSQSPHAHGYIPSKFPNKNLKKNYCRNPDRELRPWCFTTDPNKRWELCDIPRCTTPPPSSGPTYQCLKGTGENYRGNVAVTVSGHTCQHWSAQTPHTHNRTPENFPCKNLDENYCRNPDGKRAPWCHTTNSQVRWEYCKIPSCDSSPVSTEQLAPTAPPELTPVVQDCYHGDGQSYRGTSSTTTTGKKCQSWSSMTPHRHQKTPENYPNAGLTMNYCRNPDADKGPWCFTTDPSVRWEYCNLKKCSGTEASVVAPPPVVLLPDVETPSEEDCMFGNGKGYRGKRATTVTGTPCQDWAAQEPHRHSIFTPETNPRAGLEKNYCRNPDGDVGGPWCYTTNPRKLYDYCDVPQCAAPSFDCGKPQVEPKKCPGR

| mode of inhibition (δ-plasmin) (δ-plasmin) | Ki (δ-plasmin) | Pen X-Fold inhibition (Delta Plasmin) (δ-plasmin) | mode of inhibition (plasmin) (plasmin [1]) | Ki (plasmin [1]) | Pen X-Fold inhibition (Plasmin) (plasmin [1]) | Kd (plasmin [2]) | Compound | stronger inhibition than the next best inhibitor (delta plasmin) (δ-plasmin; from Ki values) | stronger inhibition than the next best inhibitor (plasmin) (plasmin [1]; from Ki values) | clot digestion (blood clots) | Vmax ([3]; S-2251 0-750 μM, PBS pH 7.4, 25° C.) | Km ([3]; S-2251 0-750 μM, PBS pH 7.4, 25° C., unit inferred) | Kcat [3] | Kcat ([3]; listed as δ-plasmin) |
| --- | --- | --- | --- | --- | --- | --- | --- | --- | --- | --- | --- | --- | --- | --- |
| purely competitive | 60.6 ± 6.72 µM | 15.2 | purely competitive | 51.9 ± 2.38 µM | 23.8 | 53.5 ± 4.42 µM | N=C(N)c1ccc(N)cc1 [4-Aminobenzamidine] | – | – | – | – | – | – | – |
| purely competitive | > 1000 µM and 1410 µM | 353.8 | purely competitive | > 1000 µM and 1070 µM | 493.0 | – | N=C(N)c1ccc(CN)cc1 [4-Aminomethyl Benzamidine] | – | – | – | – | – | – | – |
| purely competitive | 302 ± 19.2 µM | 75.8 | purely competitive | 292 µM and 293 µM | 134.2 | – | N=C(N)c1ccc(C(=O)O)cc1 [4-Carboxybenzamidine] | – | – | – | – | – | – | – |
| – | – | – | – | – | – | – | Delta Plasmin: Recombinant plasmin variant with K2-K5 deleted; kringle 1 linked directly with the catalytic domain (SEQ ID NO:2 zymogen) | – | – | 7.175% | 19.5 | 325 ± 8.43 µM | 778.2 | 778.21±1.51 |

| Compound | mode of inhibition (δ-plasmin) (δ-plasmin) | Ki (δ-plasmin) | Pen X-Fold inhibition (Delta Plasmin) (δ-plasmin) | mode of inhibition (plasmin) (plasmin [1]) | Ki (plasmin [1]) | Pen X-Fold inhibition (Plasmin) (plasmin [1]) | Kd (plasmin [2]) | stronger inhibition than the next best inhibitor (delta plasmin) (δ-plasmin; from Ki values) | stronger inhibition than the next best inhibitor (plasmin) (plasmin [1]; from Ki values) | clot digestion (blood clots) | Vmax ([3]; S-2251 0-750 μM, PBS pH 7.4, 25° C.) | Km ([3]; S-2251 0-750 μM, PBS pH 7.4, 25° C., unit inferred) | Kcat [3] | Kcat ([3]; listed as δ-plasmin) |
| --- | --- | --- | --- | --- | --- | --- | --- | --- | --- | --- | --- | --- | --- | --- |
| N=C(N)c1ccccc1 [Benzamidine] | purely competitive | – | – | purely competitive | – | – | – | – | – | – | – | – | – | – |
| N=C(N)c1ccc(OCCCCCOc2ccc(C(=N)N)cc2)cc1 [Pentamidine] | primarily competitive | – | – | primarily competitive | < 4 µM and 2.2 µM | – | – | > 15 fold | > 15 fold | – | – | – | – | – |
